Source: ChEMBL document CHEMBL5244205, “Discovery of tricyclic dipyrrolopyridine derivatives as novel JAK inhibitors” (Bioorg Med Chem, 2017)
pIC50: −log10 of the molar value.

What was measured:
[1] = molecular target: Tyrosine-protein kinase ITK/TSK (Homo sapiens, UniProt Q08881); experiment: Inhibition of ITK (unknown origin)
[2] = molecular target: RAF proto-oncogene serine/threonine-protein kinase (Homo sapiens, UniProt P04049); experiment: Inhibition of RAF1 (unknown origin)
[3] = molecular target: Tyrosine-protein kinase ZAP-70 (Homo sapiens, UniProt P43403); experiment: Inhibition of ZAP70 (unknown origin)
[4] = molecular target: T1, Tyrosine-protein kinase JAK3 (Homo sapiens, UniProt P52333)
T1 sequence (P52333 whole entry): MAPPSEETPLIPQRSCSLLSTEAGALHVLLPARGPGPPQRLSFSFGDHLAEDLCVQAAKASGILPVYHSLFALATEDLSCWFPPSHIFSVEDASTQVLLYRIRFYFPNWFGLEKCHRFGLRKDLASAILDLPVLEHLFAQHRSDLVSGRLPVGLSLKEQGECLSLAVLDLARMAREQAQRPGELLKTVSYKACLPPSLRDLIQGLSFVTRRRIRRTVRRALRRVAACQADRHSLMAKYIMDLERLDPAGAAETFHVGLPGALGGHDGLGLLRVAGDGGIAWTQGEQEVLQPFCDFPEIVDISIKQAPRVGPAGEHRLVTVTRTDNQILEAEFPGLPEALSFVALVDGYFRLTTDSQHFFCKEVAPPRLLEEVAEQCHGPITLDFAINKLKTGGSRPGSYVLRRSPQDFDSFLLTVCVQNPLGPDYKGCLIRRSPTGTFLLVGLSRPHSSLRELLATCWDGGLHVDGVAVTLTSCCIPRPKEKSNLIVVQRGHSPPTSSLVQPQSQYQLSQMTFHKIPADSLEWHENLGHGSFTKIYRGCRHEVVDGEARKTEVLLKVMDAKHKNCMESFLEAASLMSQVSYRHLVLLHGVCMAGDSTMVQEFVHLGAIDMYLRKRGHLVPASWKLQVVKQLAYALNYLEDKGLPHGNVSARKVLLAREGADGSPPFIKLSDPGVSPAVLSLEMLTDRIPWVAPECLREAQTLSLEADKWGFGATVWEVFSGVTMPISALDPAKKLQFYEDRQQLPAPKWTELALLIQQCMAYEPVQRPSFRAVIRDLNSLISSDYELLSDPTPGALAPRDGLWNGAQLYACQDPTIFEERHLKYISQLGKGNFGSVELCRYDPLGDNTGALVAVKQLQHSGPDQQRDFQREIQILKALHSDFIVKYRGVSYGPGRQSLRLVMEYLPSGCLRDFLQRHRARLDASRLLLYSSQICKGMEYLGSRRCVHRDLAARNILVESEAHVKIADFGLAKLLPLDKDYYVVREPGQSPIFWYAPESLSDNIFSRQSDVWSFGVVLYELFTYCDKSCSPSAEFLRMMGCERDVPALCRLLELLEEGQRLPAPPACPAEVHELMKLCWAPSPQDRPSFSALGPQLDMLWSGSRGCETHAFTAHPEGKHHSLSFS
Description: Inhibition of human JAK3 kinase domain using biotin-Lyn-substrate-2 as substrate incubated for 1 hr by ELISA

[5] = molecular target: Serine/threonine-protein kinase Chk1 (Homo sapiens, UniProt O14757); experiment: Inhibition of CHK1 (unknown origin)
[6] = molecular target: Mitogen-activated protein kinase 11 (Homo sapiens, UniProt Q15759); experiment: Inhibition of P38beta (unknown origin)
Sequence of Mitogen-activated protein kinase 11 (Q15759 whole entry): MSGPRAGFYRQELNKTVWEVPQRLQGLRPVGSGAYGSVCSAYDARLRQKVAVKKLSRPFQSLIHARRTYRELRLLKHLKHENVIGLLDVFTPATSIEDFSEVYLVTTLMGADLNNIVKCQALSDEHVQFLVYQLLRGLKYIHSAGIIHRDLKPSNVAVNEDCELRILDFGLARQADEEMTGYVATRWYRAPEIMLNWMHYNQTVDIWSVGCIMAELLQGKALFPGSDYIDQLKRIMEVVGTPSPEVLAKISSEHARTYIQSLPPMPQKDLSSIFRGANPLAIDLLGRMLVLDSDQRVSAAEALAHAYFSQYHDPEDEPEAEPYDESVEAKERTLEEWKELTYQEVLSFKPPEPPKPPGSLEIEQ

[7] = molecular target: Proto-oncogene tyrosine-protein kinase Src (Homo sapiens, UniProt P12931); experiment: Inhibition of SRC (unknown origin)
Sequence of Proto-oncogene tyrosine-protein kinase Src (P12931 2-536 limits assumed): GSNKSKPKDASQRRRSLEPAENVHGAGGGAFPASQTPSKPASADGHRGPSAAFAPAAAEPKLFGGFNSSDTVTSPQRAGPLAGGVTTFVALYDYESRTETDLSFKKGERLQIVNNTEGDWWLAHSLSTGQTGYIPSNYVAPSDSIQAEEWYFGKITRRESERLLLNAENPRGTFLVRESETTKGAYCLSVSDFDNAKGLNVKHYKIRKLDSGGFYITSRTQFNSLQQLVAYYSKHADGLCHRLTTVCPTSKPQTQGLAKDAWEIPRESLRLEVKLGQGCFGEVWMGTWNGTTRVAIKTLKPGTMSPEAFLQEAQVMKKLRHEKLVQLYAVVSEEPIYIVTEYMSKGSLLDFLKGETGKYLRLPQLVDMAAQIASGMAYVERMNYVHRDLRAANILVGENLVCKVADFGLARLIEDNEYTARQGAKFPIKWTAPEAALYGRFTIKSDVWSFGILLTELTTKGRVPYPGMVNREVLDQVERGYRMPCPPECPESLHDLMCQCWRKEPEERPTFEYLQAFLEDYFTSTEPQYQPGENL

[8] = molecular target: Tyrosine-protein kinase BTK (Homo sapiens, UniProt Q06187); experiment: Inhibition of BTK (unknown origin)
Sequence of Tyrosine-protein kinase BTK (Q06187 whole entry): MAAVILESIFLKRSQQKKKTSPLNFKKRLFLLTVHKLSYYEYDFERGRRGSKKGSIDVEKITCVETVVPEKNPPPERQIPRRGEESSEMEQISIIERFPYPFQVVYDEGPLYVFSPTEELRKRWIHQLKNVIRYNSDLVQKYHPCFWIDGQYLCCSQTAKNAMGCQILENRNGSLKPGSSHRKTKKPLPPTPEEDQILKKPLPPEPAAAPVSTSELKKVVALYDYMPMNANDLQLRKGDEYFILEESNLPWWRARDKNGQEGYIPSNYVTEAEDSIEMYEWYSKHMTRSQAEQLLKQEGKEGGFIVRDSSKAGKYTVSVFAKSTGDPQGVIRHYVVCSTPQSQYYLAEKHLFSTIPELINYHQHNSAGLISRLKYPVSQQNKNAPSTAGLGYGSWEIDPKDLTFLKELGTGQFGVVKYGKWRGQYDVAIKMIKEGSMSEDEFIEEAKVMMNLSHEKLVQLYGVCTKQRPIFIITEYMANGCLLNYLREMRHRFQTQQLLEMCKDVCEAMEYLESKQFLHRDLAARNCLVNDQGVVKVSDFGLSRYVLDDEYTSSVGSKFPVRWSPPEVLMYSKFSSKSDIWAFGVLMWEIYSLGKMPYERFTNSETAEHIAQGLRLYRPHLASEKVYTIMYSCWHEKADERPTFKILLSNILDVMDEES

[9] = Clearance in Sprague-Dawley rat at 1 mg/kg, iv measured up to 24 hrs by LC-MS/MS analysis; format: ADME, organism-based; details: in vivo
Angiopoietin-1 receptor = Angiopoietin-1 receptor (Homo sapiens, UniProt Q02763); experiment: Inhibition of TIE2 (unknown origin)
Sequence of Angiopoietin-1 receptor (Q02763 whole entry): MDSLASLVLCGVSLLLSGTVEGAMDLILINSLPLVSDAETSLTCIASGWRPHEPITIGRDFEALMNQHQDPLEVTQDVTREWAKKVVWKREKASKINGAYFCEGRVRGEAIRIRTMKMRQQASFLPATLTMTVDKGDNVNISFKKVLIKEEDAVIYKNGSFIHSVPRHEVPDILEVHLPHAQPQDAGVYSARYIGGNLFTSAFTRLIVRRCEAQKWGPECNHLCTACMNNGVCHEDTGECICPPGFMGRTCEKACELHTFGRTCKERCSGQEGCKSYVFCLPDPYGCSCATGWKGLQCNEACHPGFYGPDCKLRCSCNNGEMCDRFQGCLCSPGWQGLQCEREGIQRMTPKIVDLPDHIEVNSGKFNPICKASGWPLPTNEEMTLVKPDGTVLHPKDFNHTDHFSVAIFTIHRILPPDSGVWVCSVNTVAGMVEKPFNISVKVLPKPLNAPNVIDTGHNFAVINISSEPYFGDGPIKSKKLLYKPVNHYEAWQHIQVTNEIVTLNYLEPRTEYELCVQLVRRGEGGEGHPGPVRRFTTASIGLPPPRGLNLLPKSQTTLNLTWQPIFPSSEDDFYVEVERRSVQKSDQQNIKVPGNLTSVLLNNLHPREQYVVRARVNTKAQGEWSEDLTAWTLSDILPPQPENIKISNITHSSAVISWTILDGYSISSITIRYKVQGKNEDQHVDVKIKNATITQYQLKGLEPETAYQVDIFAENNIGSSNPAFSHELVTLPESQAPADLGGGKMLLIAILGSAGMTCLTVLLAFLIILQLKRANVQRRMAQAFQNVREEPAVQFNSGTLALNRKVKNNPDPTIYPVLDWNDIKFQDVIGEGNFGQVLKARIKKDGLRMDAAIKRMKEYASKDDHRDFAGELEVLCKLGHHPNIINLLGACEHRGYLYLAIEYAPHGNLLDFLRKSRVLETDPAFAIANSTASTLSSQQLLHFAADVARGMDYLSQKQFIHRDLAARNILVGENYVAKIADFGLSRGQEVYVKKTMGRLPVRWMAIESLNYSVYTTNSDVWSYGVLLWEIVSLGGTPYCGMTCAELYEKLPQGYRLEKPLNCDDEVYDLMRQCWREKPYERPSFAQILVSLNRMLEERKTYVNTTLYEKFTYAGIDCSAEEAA

[10] = AUC (0 to 24 hrs) in Sprague-Dawley rat at 1 mg/kg, iv measured up to 24 hrs by LC-MS/MS analysis; format: ADME, organism-based; parameters: dose 1 mg/kg, time < 24 hrs, route iv; details: in vivo
[11] = Oral availability in Sprague-Dawley rat at 1 mg/kg measured up to 24 hrs by LC-MS/MS analysis; format: ADME, organism-based; details: in vivo
[12] = molecular target: Insulin-like growth factor 1 receptor (Homo sapiens, UniProt P08069); experiment: Inhibition of IGF1R (unknown origin)
[13] = molecular target: RAC-alpha serine/threonine-protein kinase (Homo sapiens, UniProt P31749); experiment: Inhibition of AKT1 (unknown origin)
[14] = molecular target: Mitogen-activated protein kinase 8 (Homo sapiens, UniProt P45983); experiment: Inhibition of JNK1 (unknown origin)
Sequence of Mitogen-activated protein kinase 8 (P45983 whole entry): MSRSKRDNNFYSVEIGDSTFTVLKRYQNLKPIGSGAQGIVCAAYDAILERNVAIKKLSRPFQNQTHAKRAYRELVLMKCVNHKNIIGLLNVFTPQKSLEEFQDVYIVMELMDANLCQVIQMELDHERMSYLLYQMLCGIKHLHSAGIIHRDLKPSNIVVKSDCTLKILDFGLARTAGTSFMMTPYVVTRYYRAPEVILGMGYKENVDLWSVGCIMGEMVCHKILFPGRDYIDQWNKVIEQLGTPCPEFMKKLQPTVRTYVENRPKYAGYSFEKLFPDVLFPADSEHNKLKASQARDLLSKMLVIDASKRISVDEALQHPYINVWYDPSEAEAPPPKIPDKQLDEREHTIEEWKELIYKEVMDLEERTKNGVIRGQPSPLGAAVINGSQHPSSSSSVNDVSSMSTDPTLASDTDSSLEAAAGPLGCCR

[15] = pampa, pH 6.5, 2 h
Description: Permeability of the compound in pH 6.5 incubated for 2 hrs by PAMPA based HPLC analysis

[16] = molecular target: Ribosomal protein S6 kinase beta-1 (Homo sapiens, UniProt P23443); experiment: Inhibition of p70S6K (unknown origin)
[17] = Half life in Sprague-Dawley rat at 1 mg/kg, iv measured up to 24 hrs by LC-MS/MS analysis; format: ADME, organism-based; details: in vivo
Rattus norvegicus [18] = experiment: Immunosuppressive activity in Lewis rat transplanted with ACI rat cardiac tissue assessed as reduction in graft rejection by measuring mean survival days at 0.25 mg/kg, po administered for 14 consecutive days co-treated with tacrolimus (reference value: 10 days); format: functional; details: time 14 day
[19] = molecular target: High affinity nerve growth factor receptor (Homo sapiens, UniProt P04629); experiment: Inhibition of TRKA (unknown origin)
Sequence of High affinity nerve growth factor receptor (P04629 whole entry): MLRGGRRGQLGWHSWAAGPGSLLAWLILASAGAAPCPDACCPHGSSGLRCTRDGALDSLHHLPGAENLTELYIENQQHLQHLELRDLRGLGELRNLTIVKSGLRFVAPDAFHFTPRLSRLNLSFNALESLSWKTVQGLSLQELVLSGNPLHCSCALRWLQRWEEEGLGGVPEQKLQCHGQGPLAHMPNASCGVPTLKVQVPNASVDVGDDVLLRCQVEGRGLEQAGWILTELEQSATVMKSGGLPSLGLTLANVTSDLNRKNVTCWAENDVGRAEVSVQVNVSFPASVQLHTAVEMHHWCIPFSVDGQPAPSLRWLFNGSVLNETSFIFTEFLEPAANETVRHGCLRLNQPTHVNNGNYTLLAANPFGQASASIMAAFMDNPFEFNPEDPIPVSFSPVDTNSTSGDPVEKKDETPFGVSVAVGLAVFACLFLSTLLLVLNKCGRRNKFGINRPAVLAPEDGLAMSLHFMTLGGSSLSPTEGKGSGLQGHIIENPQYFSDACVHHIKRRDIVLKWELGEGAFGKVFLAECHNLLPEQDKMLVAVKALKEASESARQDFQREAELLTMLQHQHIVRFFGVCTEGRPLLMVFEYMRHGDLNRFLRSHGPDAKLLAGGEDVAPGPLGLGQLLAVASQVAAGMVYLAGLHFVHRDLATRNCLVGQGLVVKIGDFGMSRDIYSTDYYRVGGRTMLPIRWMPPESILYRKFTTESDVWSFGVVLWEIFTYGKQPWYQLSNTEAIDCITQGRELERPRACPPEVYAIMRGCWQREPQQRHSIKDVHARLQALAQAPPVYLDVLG

[20] = Volume of distribution in Sprague-Dawley rat at 1 mg/kg, iv measured up to 24 hrs by LC-MS/MS analysis; format: ADME, organism-based; details: in vivo
[21] = molecular target: Epidermal growth factor receptor (Homo sapiens, UniProt P00533); experiment: Inhibition of EGFR (unknown origin)
[22] = molecular target: Tyrosine-protein kinase ABL1 (Homo sapiens, UniProt P00519); experiment: Inhibition of ABL (unknown origin)
[23] = Inhibition of SYK (unknown origin); parameters: species or system Homo sapiens
[24] = molecular target: MAP kinase-activated protein kinase 2 (Homo sapiens, UniProt P49137); experiment: Inhibition of MAPKAPK2 (unknown origin)
[25] = Cmax in Sprague-Dawley rat at 1 mg/kg, po measured up to 24 hrs by LC-MS/MS analysis; format: ADME, organism-based; parameters: time < 24 hrs, dose 1 mg/kg, route po; details: in vivo
[26] = molecular target: Tyrosine-protein kinase JAK1 (Homo sapiens, UniProt P23458)
Description: Inhibition of human JAK1 kinase domain using biotin-Lyn-substrate-2 as substrate incubated for 1 hr by ELISA

Ephrin type-A receptor 2 = Ephrin type-A receptor 2 (Homo sapiens, UniProt P29317); experiment: Inhibition of EphA2 (unknown origin)
Sequence of Ephrin type-A receptor 2 (P29317 whole entry): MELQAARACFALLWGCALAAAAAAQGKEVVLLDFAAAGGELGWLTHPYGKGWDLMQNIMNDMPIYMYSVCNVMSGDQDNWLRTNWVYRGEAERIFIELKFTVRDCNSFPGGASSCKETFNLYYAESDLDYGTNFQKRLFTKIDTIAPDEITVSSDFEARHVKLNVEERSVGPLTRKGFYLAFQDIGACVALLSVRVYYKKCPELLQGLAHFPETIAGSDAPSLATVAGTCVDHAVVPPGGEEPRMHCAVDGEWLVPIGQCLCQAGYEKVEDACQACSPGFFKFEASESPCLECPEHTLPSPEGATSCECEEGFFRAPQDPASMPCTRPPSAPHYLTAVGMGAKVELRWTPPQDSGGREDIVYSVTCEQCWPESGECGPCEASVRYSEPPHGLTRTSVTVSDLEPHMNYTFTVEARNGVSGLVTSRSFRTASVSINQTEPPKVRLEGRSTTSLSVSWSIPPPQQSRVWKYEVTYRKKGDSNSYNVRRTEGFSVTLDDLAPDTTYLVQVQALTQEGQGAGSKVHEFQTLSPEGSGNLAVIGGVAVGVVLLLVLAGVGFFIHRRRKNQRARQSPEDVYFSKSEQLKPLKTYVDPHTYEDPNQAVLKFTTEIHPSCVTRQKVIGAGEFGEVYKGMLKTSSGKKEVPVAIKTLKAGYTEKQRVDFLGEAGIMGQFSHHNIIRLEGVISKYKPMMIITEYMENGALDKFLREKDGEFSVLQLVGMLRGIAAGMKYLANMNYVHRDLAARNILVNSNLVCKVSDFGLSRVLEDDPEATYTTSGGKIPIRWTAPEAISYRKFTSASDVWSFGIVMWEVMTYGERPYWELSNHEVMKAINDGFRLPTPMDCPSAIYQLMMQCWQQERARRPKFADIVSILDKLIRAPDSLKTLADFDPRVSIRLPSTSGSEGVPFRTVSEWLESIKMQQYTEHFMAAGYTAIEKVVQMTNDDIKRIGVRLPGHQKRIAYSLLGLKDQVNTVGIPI

[27] = molecular target: Glycogen synthase kinase-3 beta (Homo sapiens, UniProt P49841); experiment: Inhibition of GSK3beta (unknown origin)
Rattus norvegicus [28] = experiment: Immunosuppressive activity in Lewis rat transplanted with ACI rat cardiac tissue assessed as reduction in graft rejection by measuring mean survival days at 0.1 mg/kg, po administered for 14 consecutive days co-treated with tacrolimus (reference value: 10 days); format: functional; details: time 14 day
cells = details: Rattus norvegicus, Lewis, Splenocyte, 72 h
Description: Immunosuppressive activity in Lewis rat splenocytes assessed as inhibition of concanavalin A-induced IL-2 receptor expression incubated for 3 days by alamarBlue assay

Aurora kinase C = Aurora kinase C (Homo sapiens, UniProt Q9UQB9); experiment: Inhibition of AURC (unknown origin)

Compound: C[C@@H]1CCN(C(=O)CC#N)C[C@@H]1n1ccc2cnc3[nH]ccc3c21
- pIC50 [1]: < 6.00
- pIC50 [2]: < 6.00
- pIC50 [3]: < 6.00
- pIC50 [4]: 9.85
- pIC50 [5]: < 6.00
- pIC50 [6]: < 6.00
- pIC50 [7]: < 6.00
- pIC50 [8]: < 6.00
- clearance [9]: 1.13 L/h/kg
- pIC50 (Angiopoietin-1 receptor): < 6.00
- AUC(0-t) at 24 h [10]: 0.889 µg·h/mL
- bioavailability [11]: 103%
- pIC50 [12]: < 6.00
- pIC50 [13]: < 6.00
- pIC50 [14]: < 6.00
- permeability [15]: 20 10^-6 cm/s
- pIC50 [16]: < 6.00
- half-life [17]: 1.64 h
- MST (Rattus norvegicus [18]): 21 days
- pIC50 [19]: < 6.00
- Vd [20]: 1.52 L/kg
- pIC50 [21]: < 6.00
- pIC50 [22]: < 6.00
- pIC50 [23]: < 6.00
- pIC50 [24]: < 6.00
- Cmax [25]: 0.26 µg/mL
- pIC50 [26]: 9.34
- pIC50 (Ephrin type-A receptor 2): < 6.00
- pIC50 [27]: < 6.00
- MST (Rattus norvegicus [28]): 9 days
- pIC50 (cells): 8.37
- pIC50 (Aurora kinase C): < 6.00
